Experimental data: ChEMBL document CHEMBL1146545, “Ainigmaptilones, sesquiterpenes from the Antarctic gorgonian coral Ainigmaptilon antarcticus” (J Nat Prod, 2003)
Activity calls are given as the source filed them. No cut-off for these calls is given here.

System: Antarctic bacterium
Assay: Antimicrobial activity against Antarctic bacteria at 5 mg/mL
Format: functional, organism-based

SMILES: C=C(C)[C@@H]1CC[C@]2(CO)C=CC(=O)[C@@H](C)[C@H]2C1
- Activity: Active
